# Measured values published in US20100204295A1, “TREATMENT OF ALLERGIC DISEASE WITH IMMUNOMODULATOR COMPOUNDS” (SCICLONE PHARMACEUTICALS, INC., priority 2007, published 2010).
# Assays:
# [1] = test system: spleen lymphocytes; settings: cited from earlier work
# [2] = test system: RBCs and protein in the BAL; test: Lung injury / microvascular permeability: RBCs and total protein in BAL, guinea pig model; format: in vivo, Dunkin-Hartley guinea pigs
# Method: Animals were sensitized on day 0 ip with 50 mg/kg OVA. On Days 17, 18, 19, and 20, animals received an ip injection between 8 and 10 am with PBS, SCV-07 at 1 ug/kg, or SCV-07 at 10 ug/kg (Peptide treatment). Between 8 and 10 a.m. on Day 21, animals were administered peptide 2 hours before OVA or saline (NSS) aerosol challenge. 30 min before OVA or NSS aerosol challenge each animal was injected ip with an antihistamine (6.1 mg/kg pyrilamine maleate) to prevent death due to the anaphylactic response that accompanies aerosol OVA challenge. Animals were exposed to aerosol in pairs with either 1% OVA solution or NSS for 5 min in a plexiglass chamber (22×22×29 cm) using a DeVilbiss Model 35B Ultrasonic Nebulizer. Animals were observed during the total 5 min aerosolization and comments recorded. Within 22-24 hours after challenge, animals were euthanized, bled by cardiac puncture, lavaged and lung lobes removed for measurement of cellular infiltration. At the time of OVA or NSS challenge and euthanasia, animal weights ranged from approximately 350-550 g, with the average weight approximately 420 g. This experimental protocol is similar to that used in previously published studies (Regal and Fraser, 1996; Regal et al., 2000). […] Total white blood cells in BAL were counted by standard methods in a hemacytometer using Turk's solution. […] Four hundred cells were counted and identified as eosinophils, neutrophils, or mononuclear cells. […] EPO activity from the homogenized lung after lavage was expressed as total OD/min from the left caudal lobe. MPO activity from the homogenized lung after lavage was expressed as total units of enzyme activity from the right caudal lobe. […] OD412 of the BAL supernatant was also determined to estimate the number of RBCS that were lysed during the lavage procedure and prior to re-suspension of the cells for counting. […] Lung injury and/or changes in microvascular permeability were assessed by determining the RBCs in the BAL (FIG. 7A-B) as well as the overall protein content of the BAL fluid (FIG. 7C). […]
# [3] = test system: bone marrow cells; settings: cited from earlier work
# [4] = test system: bronchial asthma; format: in vivo
# Text: Patient B-skii, reported with complaints of dyspnea attacks 6-7 times a day, cough with phlegm that was difficult to discharge, shortness of breath, and nasal obstruction. It is known from the history that, since 1985, they have suffered bronchial asthma, has been hospitalized several times by emergency medical services in the Allergological Department in conjunction with exacerbation of the disease. Since 1997, they have been taking systemic glucocorticoids (Prednisolone 2 tablets/day—maintenance dose). They are also receiving Beklazom LD 250 (up to 1000 μg/day), Flixotide 250 (to 1000 μg/day), prolonged broncholytics (Serevent 25 μg/unit 50 μg/s), Teotard 200 (2 k/day, 400 mg/day). The attacks are treated with salbutamol (Ventolin).
# The patient was prescribed the treatment: • 1. Ventolin through a nebulizer during dyspnea attacks—for 2 days, then Astalin (DAI) during dyspnea no more than 3-4 times a day; • 2. Intravenous drip: • 1. Prednisolone 90 nu-60 nu-30 nu in 200.0 mL physiological saline; • 2. Euphylline 2.4%-10.0-5.0 mL. • 3. Heparin 5000 units. • 4. Benacort 200 (800 μg/day). • 5. Prednisolone 4 t/day (8:00, 12:00) • 6. Lazolvan through a nebulizer, then Ambrohexyl 1 t/3 times a day.
# During attenuation of the acute condition (on the 8th day of hospitalization), SCV-07 was prescribed in an amount of 0.1 mg in 1.0 mL physiological saline once a day No. 5 daily [sic] intramuscular.
# The patient took another examination under dynamic conditions (24 hours after the 5th intramuscular injection of SCV-07): Total blood analysis: erythrocytes—5.12·10^12/L, HB—159 g/L, leukocytes—9.7° 10^9/L, ESR—6 mm/h, b-, e—2%, rod nuclears—5%, segmented nuclears—67%, lymphocytes—20%, M—6%. Blood biochemistry: Sugar—5.7; Total bilirubin—8.9, ALT—0.12, AST—0.13, urea—5.12, creatinine—0.073 General sputum analysis—character—mucous, color gray, consistency viscous, flat epithelium 7-8, alveolar epithelium—none, leukocytes—1-2× in visual field. Hormonal status—cortisol—72.4 Evaluation of immune status
# [5] = 24 hours after the 5th injection
# [6] = after 5 intramuscular injections of 0.1 mg
smiles,measurement,setting,value
"N[C@H](CCC(=O)N[C@@H](Cc1c[nH]c2ccccc12)C(=O)O)C(=O)O [SCV-07, γ-D-glutamyl-L-tryptophan]",Con-A-induced interleukin-2 (IL-2) production by spleen lymphocytes,[1],increases
same,IL-2 receptor expression by spleen lymphocytes,[1],increases
same,OD412 of the BAL supernatant,[2]; change from NSS to OVA,significantly reduced
same,"Number of RBCs in the BAL (OD412 of lysed cell pellet), change from NSS to OVA",[2]; either 1 or 10 ug/kg,significantly attenuated
same,Total protein in the BAL fluid,"[2]; guinea pig, in vivo",not affected
same,Expression of Thy-1.2 on bone marrow cells,[3],stimulates expression
same,Immune status: CD3+,[4]; [5],CD3^+- 52
same,Immune status: CD4+,[4]; [5],CD4^+- 36
same,Immune status: CD8+,[4]; [5],CD8^+- 15
same,Immune status: CD16+,[4]; [5],CD16^+- 7
same,Immune status: CD20+,[4]; [5],CD20^+-11
same,Immune status: CD25+,[4]; [5],CD25^+-1.3
same,Immune status: Ig A,[4]; [5],Ig A - 1.11
same,Immune status: Ig G,[4]; [5],Ig G - 11.5
same,Immune status: Ig M,[4]; [5],Ig M - 0.9
same,Immune status: NST,[4]; [5],NST - 100/163
same,Immune status: TSIK,[4]; [5],TSIK - 77
same,Immune status: κ (NST ratio),[4]; [5],κ - 1.6
same,Immune status: Ig E,"[4]; 24 hours after the 5th injection, 1130.6 on admission",Ig E - 672.1
same,Clinical dynamics of the disease,[4]; [6],"elimination of dyspnea attacks, cough, rhinitis"
same,Patient well-being after the course,[4]; [6],significant improvement of feeling well-being
same,Shortness of breath (respiratory rate),"[4]; after course, 24 per minute on admission",16 per minute
